Test results as given in patent publication US5354747A, “2-, 3-, 4-, 5-, 6-, 7-, 8-, 9- and/or 10-substituted dibenzoxazepine and dibenzthiazepine compounds, pharmaceutical compositions and methods of use” (G. D. Searle & Co., priority 1993, dated 1994).
Structures can show the parent of a compound that is named as a salt.

Assays:
[1] = test system: Charles River male albino mice; assay: Writhing Assay (PBQ-induced writhing, analgesic activity); format: in vivo; conditions: Intragastric; for responders at 30 mg/kg / ED50: Mus musculus, po; for responders at 30 mg/kg: 25 min, read-out: number of mice out of nine or ten in which a test compound produced analgesia (converted); for ED50: PBQ writhing, mice, maximum likelihood function, read-out: calculated ED50 value (dose which produced analgesia in 50% of the mice)
From the text: The Writhing Assay is one of the most widely-used experimental procedures for measuring the analgesic activity of different narcotic and nonnarcotic analgesic agents, and involves the continuous, chemically-induced pain of visceral origin to an animal, such as a mouse or rat. [Gyires et al., Arch. int. Pharmacodyn, 267, 131-140 (1984); […] al., Fed. Proc., 15, 494 (1956); Koster et al., Fed. Proc., 18, 412 (1959); and Witken et al., J. Pharmacol. exp. Ther., 133, 400-408 (1961).] Chemicals which may be used to induce this pain include phenylbenzoquinone (PBQ) and acetic acid. As a result of the chemical irritation to the animal, a characteristic stretching and writhing of the animal (dorsiflexion of the animal's back, extension of its hindlimbs and the strong contraction of its abdominal musculature) will generally occur. […] Drugs which reduce the number of writhes of the animal appear to restore the normal nociceptive threshold of the animal. Charles River male albino mice, weighing 20 to 30 grams were used in this assay. Twenty-five minutes after intragastric administration to nine or ten mice of 30 mg per kilogram of body weight of a compound of the present invention ("test compound"), […] of body weight of a 0.025% w/v solution of PBQ was injected intraperitoneally into each mouse. Ten mice which were given saline in place of a test compound of the invention were used as a control group. Five minutes later, each mouse was individually placed into a glass beaker for observation, and the number of writhes occurring during the following ten-minute period was counted. A test compound was considered to have produced analgesia in a mouse if, in accordance with the conditions set forth above, and under the test criteria employed for this assay, after the administration of 30 mg per kilogram of body weight of a compound of the present invention to the mouse, the number of writhes elicited by a mouse injected with PBQ was equal to, or less than, one-half the median number of writhes recorded for the saline-treated control group of mice that day, as described by Taber in "Predictive Value of Analgesic Assays in Mice and Rats," Advances in Biochemical Psychopharmacology, 8, 191 (1974). […] If this initial screening dose of the test compound produced analgesia in seven of nine or ten mice, then the effect of additional doses of the test compound on the writhing response was evaluated, and then the ED50 value (that dose of a compound which produced analgesia in 50% of the mice to which the compound was administered) was generally calculated. A maximum likelihood function was used to determine the ED50 value. (The slopes of the dose-response curves for all test compounds analyzed were compared as described by Tallarida and Murray, Manual of Pharmacologic Calculations, Page 11 (Springer Verlag, New York, 1981)). The results for the particular compounds of the present invention analyzed in this assay, and discussed in the examples identified below which correspond thereto, are presented in Table 1 hereinbelow. The compounds of the present invention which were tested in this assay, and for which results are presented in Table 1, correspond to the particular examples specified in Table 1. The fractions indicate the number of mice out of nine or ten in which a test compound produced analgesia, and the whole numbers are the calculated ED50 values.

[2] = test system: prostaglandin E2 -induced contractions of segments of guinea pig ileum; assay: Prostaglandin (PGE) Antagonism Assay; format: cell-based; conditions: dose ratio of prostaglandin E2 EC50 doses with/without test compound, initial concentration 3 micromolar
Description: In order to determine the effectiveness of several of the compounds of the present invention ("test compounds") as prostaglandin E2 antagonists,a prostaglandin antagonism assay was conducted, as described below, to determine the ability of these compounds to inhibit prostaglandin E2 -induced contractions of segments of guinea pig ileum. […] Male albino guinea pigs weighing 200 to 500 grams were sacrificed by cervical dislocation. The ilea were then quickly removed from the guinea pigs and placed in a modified Tyrode solution, a solution which is known to those skilled in the art, containing one-half of the usual amount of magnesium ions. Segments of ileum about 2 cm long were then cut and mounted in a 10-mL tissue bath containing the modified Tyrode solution. The solution was maintained at 37° C. and aerated with a gaseous mixture of 95% oxygen and 5% carbon dioxide. Data for a control prostaglandin E2 dose response curve plotting concentration of prostaglandin E2 versus the intensity of contractions, detected isotonically, was then obtained by experimentally adjusting the dose of the prostaglandin E2 being injected into the tissue bath, in a manner known by those of skill in the art. Solutions or suspensions containing an initial concentration (3 micromolar) of a test compound in modified Tyrode solution ("test solutions/suspensions") were then separately substituted for the control bath solution. Each test solution/suspension was then kept in constant contact with the ileum tissue, except for brief periods to drain the bath in preparation for rinsing with fresh test solution/suspension. A second prostaglandin E2 dose response curve was then generated for prostaglandin E2 in the presence of a test compound. A dose ratio (DR) of EC50 doses was then calculated from the results of each test in a manner known by those of skill in the art. A control dose response curve (DRC) is produced in isolated segments of guinea pig ileum mounted in an automated apparatus with six concentrations of prostaglandin E2. A solution or suspension of test compound is substituted for the control bathing solution and is incubated for thirty minutes. An additional prostaglandin E2 dose response curve is produced in the presence of the test compound. A dose ratio is calculated from the EC50 values obtained from duplicate replications on each concentration of the test compound. […] The results of this prostaglandin antagonism assay are presented in Table 2 below in terms of their dose ratio. The compounds of the present invention which were tested in this assay, and for which results are presented in Table 2, correspond to the particular examples specified in Table 2.

[3] = 30 mg per kilogram of body weight 25 min before PBQ i.p., writhes equal to or less than one-half the control median

Row | Compound | number of mice out of nine or ten in which a test compound produced analgesia [1, 3] | responders at 30 mg/kg [1, 3] [%] | Dose Ratio [2] | ED50 [1] [mg/kg]
1 | 8-chloro-10,11-dihydro-10-[[4-(2-pyridinyl)-1-piperazinyl]carbonyl]dibenz[b,f][1,4]oxazepine, monohydrochloride [Example 11] | 1/10 |  |  | 
2 | O=C(C1CCN(C(=O)N2Cc3ccccc3Oc3ccc(Cl)cc32)CC1)N(CCO)CCO [Example 3, 1-[(8-chlorodibenz[b,f][1,4]oxazepin-10(11H)yl)carbonyl]-N,N-bis(2-hydroxyethyl)-4-piperidinecarboxamide] |  | 20 | 1.5 | 
3 | O=C(N1CCN2CCCCC2C1)N1Cc2ccccc2Oc2ccc(Cl)cc21 (stereo not shown) [Example 5, 8-chloro-10,11-dihydro-10-[(octahydro-2H-pyrido[1,2,-a]pyrazin-2-yl)carbonyl]dibenz[b,f][1,4]oxazepine hydrochloride] |  | 40 | 2.4 | 
4 | Cl.O=C(N1CCN(Cc2ccccc2)CC1)N1Cc2ccccc2Oc2ccc(Cl)cc21 [Example 7, 8-chloro-10,11-dihydro-10-[[4-(phenylmethyl)-1-piperazinyl]carbonyl]dibenz[b,f][1,4]oxazepine, monohydrochloride] |  |  | 5.1 | 6.8
5 | CCCCN1CCN(C(=O)N2Cc3ccccc3Oc3ccc(Cl)cc32)CC1.Cl [Example 9, 10-[(4-butyl-1-piperazinyl)carbonyl]-8-chloro-10,11-dihydrodibenz[b,f][1,4]oxazepine, monohydrochloride] |  |  | 1.4 | 9.7
6 | Cl.O=C(N1CCC(N2CCCCC2)CC1)N1Cc2ccccc2Oc2ccc(Cl)cc21 [Example 13, 10-([1,4'-bipiperidin]-1'-ylcarbonyl)-8-chloro-10,11-dihydrodibenz[b,f][1,4]oxazepine, hydrochloride] |  | 90 | 1.6 | 
7 | CCCCCCCCCCN1CCN(C(=O)N2Cc3ccccc3Oc3ccc(Cl)cc32)CC1.Cl [Example 15, 8-chloro-10-[(4-decyl-1-piperazinyl)carbonyl]-10,11-dihydrodibenz[b,f][1,4]oxazepine, monohydrochloride] |  |  | 2.1 | 6.4
8 | CCCN1CCN(C(=O)N2Cc3ccccc3Oc3ccc(Cl)cc32)CC1.Cl [Example 17, 8-chloro-10,11-dihydro-10-[(4-propyl-1-piperazinyl)carbonyl]dibenz[b,f][1,4]oxazepine, hydrochloride] |  |  | 3.1 | 5.1
9 | CCN1CCN(C(=O)N2Cc3ccccc3Oc3ccc(Cl)cc32)CC1.Cl [Example 19, 8-chloro-10-[(4-ethyl-1-piperazinyl)carbonyl]-10,11-dihydrodibenz[b,f][1,4]oxazepine, hydrochloride] |  | 22.2 | 6.0 | 
10 | CC(C)(C)OC(=O)N1CCN(C(=O)N2Cc3ccccc3Oc3ccc(Cl)cc32)CC1 [Example 20, 1,1-dimethylethyl 4-[(8-chlorodibenz[b,f][1,4]oxazepin-10(11H)-yl)carbonyl]-1-piperazinecarboxylate] |  | 40 | 8.0 | 
11 | CC(C)N1CCN(C(=O)N2Cc3ccccc3Oc3ccc(Cl)cc32)CC1.Cl [Example 22, 8-chloro-10,11-dihydro-10-[[4-(1-methylethyl]-1-piperazinyl]carbonyl]dibenz[b,f][1,4]oxazepine, hydrochloride] |  | 30 | 3.0 | 
12 | CCCN1CCCN(C(=O)N2Cc3ccccc3Oc3ccc(Cl)cc32)CC1 [Example 24, monohydrochloride] |  |  | 11.9 | 14.7
13 | O=C(N1CCNCC1)N1Cc2ccccc2Oc2ccc(Cl)cc21 [Example 25, 8-chloro-10,11-dihydro-10-(1-piperazinylcarbonyl)dibenz[b,f][1,4]oxazepine, monohydrochloride] |  | 50 | 1.6 | 
14 | Cl.O=C(c1ccncc1)N1CCN(C(=O)N2Cc3ccccc3Oc3ccc(Cl)cc32)CC1 [Example 29, 1-[(8-chlorodibenz[b,f][1,4]oxazepin-10(11H)-yl)carbonyl]-4-(4-pyridinylcarbonyl)piperazine, monohydrochloride] |  | 50 | 2.2 | 
15 | O=C(N1CCC(N2CCCC2)CC1)N1Cc2ccccc2Oc2ccc(Cl)cc21 [Example 34, 8-chloro-10,11-dihydro-10-[[4-(1-pyrrolidinyl)-1-piperidinyl]carbonyl]dibenz[b,f][1,4]oxazepine] |  | 70 |  | 
16 | Cl.O=C(N1CCC(N2CCCC2)CC1)N1Cc2ccccc2Oc2ccc(Cl)cc21 [Example 35, 8-chloro-10,11-dihydro-10-[[4-(1-pyrrolidinyl)-1-piperidinyl]carbonyl]dibenz[b,f][1,4]oxazepine, hydrochloride] |  |  | 1.0 | 
17 | O=C(c1ccco1)N1CCN(C(=O)N2Cc3ccccc3Oc3ccc(Cl)cc32)CC1 [Example 38, 1-[(8-chlorodibenz[b,f][1,4]oxazepin-10(11H)-yl)carbonyl]-4-(2-furanylcarbonyl)piperazine] |  | 10 |  | 
18 | O=C(N1Cc2ccccc2Oc2ccc(Cl)cc21)N1CCCCC1CCN1CCCC1 (stereo not shown) [Example 49, 8-chloro-10,11-dihydro-10-[[2-[2-(1-pyrrolidinyl)ethyl]-1-piperidinyl]carbonyl]dibenz[b,f][1,4]oxazepine, hydrochloride] |  | 20 |  | 
19 | CCOC(=O)C1CN(C(=O)N2Cc3ccccc3Oc3ccc(Cl)cc32)CCN1c1ccccc1 (stereo not shown) [Example 50, ethyl 4-[(8-chlorodibenz[b,f][1,4]oxazepin-10(11H)-yl)carbonyl]-1-phenyl-2-piperazinecarboxylate] |  |  | 2.7 | 
20 | O=C(Cc1ccncc1)N1CCN(C(=O)N2Cc3ccccc3Oc3ccc(Cl)cc32)CC1 [Example 79, 1-[(8-Chlorodibenz[b,f][1,4]oxozepin-10(11H)-yl)carbonyl]-4-[1-oxo-2(4-pyridinyl)-ethyl]piperazine, monohydrochloride, monohydrate] |  |  | 10 | 
21 | Cl.O=C(Cc1ccncc1)N1CCCN(C(=O)N2Cc3ccccc3Oc3ccc(Cl)cc32)CC1 [Example 81, 1-[(8-chlorodibenz[b,f][1,4]oxazepin-10(11H)-yl)carbonyl]hexahydro-4-(4-pyridinylacetyl)-1H-1,4-diazepine, monohydrochloride] |  |  | 32 | 
